Values after ≈ are worked out from the molar mass of the structure shown. Active and inactive are the calls of the source. The rule behind the calls is not given here.
Assays:
[1] = target: T1, Multidrug efflux pump LfrA (Mycobacterium smegmatis (strain ATCC 700084 / mc(2)155)) (UniProt A0R5K5); assay: Inhibition of LfrA in Mycobacterium smegmatis MC2 155 ATCC 700084 assessed as decrease in EtBr MIC at 100 ug/ml after 72 hrs by MTT assay relative to control; conditions: Mycolicibacterium smegmatis MC2 155
T1 sequence (whole entry): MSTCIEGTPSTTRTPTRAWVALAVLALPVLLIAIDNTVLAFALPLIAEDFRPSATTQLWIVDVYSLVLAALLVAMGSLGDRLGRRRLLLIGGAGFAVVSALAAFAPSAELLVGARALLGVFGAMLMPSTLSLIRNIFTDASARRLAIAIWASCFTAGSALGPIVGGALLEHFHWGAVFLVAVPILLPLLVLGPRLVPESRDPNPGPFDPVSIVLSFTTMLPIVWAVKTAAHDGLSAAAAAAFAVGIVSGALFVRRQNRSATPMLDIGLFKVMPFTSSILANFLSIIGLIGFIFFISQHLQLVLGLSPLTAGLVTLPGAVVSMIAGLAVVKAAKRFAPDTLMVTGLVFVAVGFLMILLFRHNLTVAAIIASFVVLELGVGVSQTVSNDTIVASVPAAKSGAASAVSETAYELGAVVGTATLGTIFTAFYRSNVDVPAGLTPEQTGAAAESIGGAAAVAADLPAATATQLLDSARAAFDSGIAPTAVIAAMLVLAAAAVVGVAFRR

CC-1 = assay: Cytotoxicity against rat CC1 cells assessed as decrease in cell survival at 200 ug/ml after 24 hrs by Alamar blue reduction assay relative to control; type: cell-based; conditions: cc-1, 24 h
[2] = target: T1, Multidrug efflux pump LfrA (Mycobacterium smegmatis (strain ATCC 700084 / mc(2)155)); assay: Inhibition of LfrA in Mycobacterium smegmatis MC2 155 ATCC 700084 assessed as potentiation of EtBr-induced bactericidal activity at 100 ug/ml after 48 hrs; conditions: Mycolicibacterium smegmatis MC2 155
[3] = Cytotoxicity against rat CC1 cells assessed as cell survival at 50 ug/ml after 24 hrs by Alamar blue reduction assay relative to control; type: cell-based, CC-1; conditions: read-out: Survival
[4] = Cytotoxicity against rat CC1 cells assessed as cell survival at 100 ug/ml after 24 hrs by Alamar blue reduction assay relative to control; type: cell-based, CC-1; conditions: read-out: Survival
[5] = target: T1, Multidrug efflux pump LfrA (Mycobacterium smegmatis (strain ATCC 700084 / mc(2)155)); assay: Inhibition of LfrA in Mycobacterium smegmatis MC2 155 ATCC 700084 assessed as increase in EtBr accumulation at 50 ug/ml measured every 5 mins for 35 mins by fluorometric analysis; conditions: Mycolicibacterium smegmatis MC2 155
[6] = target: T1, Multidrug efflux pump LfrA (Mycobacterium smegmatis (strain ATCC 700084 / mc(2)155)); assay: Inhibition of LfrA in Mycobacterium smegmatis MC2 155 ATCC 700084 assessed as decrease in norfloxacin MIC at 50 ug/ml after 72 hrs by MTT assay relative to control; conditions: Mycolicibacterium smegmatis MC2 155
[7] = test system: Mycolicibacterium smegmatis; assay: Growth inhibition of Mycobacterium smegmatis MC2 155 ATCC 700084 after 72 hrs by MTT assay; type: organism-based
[8] = target: T1, Multidrug efflux pump LfrA (Mycobacterium smegmatis (strain ATCC 700084 / mc(2)155)); assay: Inhibition of LfrA in Mycobacterium smegmatis MC2 155 ATCC 700084 assessed as increase in EtBr accumulation at 25 ug/ml measured every 5 mins for 35 mins by fluorometric analysis; conditions: Mycolicibacterium smegmatis MC2 155
[9] = target: T1, Multidrug efflux pump LfrA (Mycobacterium smegmatis (strain ATCC 700084 / mc(2)155)); assay: Inhibition of LfrA in Mycobacterium smegmatis MC2 155 ATCC 700084 assessed as decrease in norfloxacin MIC at 25 ug/ml after 72 hrs by MTT assay relative to control; conditions: Mycolicibacterium smegmatis MC2 155
[10] = target: T1, Multidrug efflux pump LfrA (Mycobacterium smegmatis (strain ATCC 700084 / mc(2)155)); assay: Inhibition of LfrA in Mycobacterium smegmatis MC2 155 ATCC 700084 assessed as decrease in EtBr MIC at 0.78 ug/ml after 72 hrs by MTT assay relative to control; conditions: Mycolicibacterium smegmatis MC2 155
[11] = target: T1, Multidrug efflux pump LfrA (Mycobacterium smegmatis (strain ATCC 700084 / mc(2)155)); assay: Inhibition of LfrA in Mycobacterium smegmatis MC2 155 ATCC 700084 assessed as potentiation of EtBr-induced bactericidal activity at 2 ug/ml after 24 hrs; conditions: Mycolicibacterium smegmatis MC2 155
[12] = target: T1, Multidrug efflux pump LfrA (Mycobacterium smegmatis (strain ATCC 700084 / mc(2)155)); assay: Inhibition of LfrA in Mycobacterium smegmatis MC2 155 ATCC 700084 assessed as potentiation of EtBr-induced bactericidal activity at 2 ug/ml after 48 hrs; conditions: Mycolicibacterium smegmatis MC2 155
[13] = target: T1, Multidrug efflux pump LfrA (Mycobacterium smegmatis (strain ATCC 700084 / mc(2)155)); assay: Inhibition of LfrA in Mycobacterium smegmatis MC2 155 ATCC 700084 assessed as increase in norfloxacin accumulation at 25 ug/ml measured every 5 mins for 35 mins by fluorometric analysis; conditions: Mycolicibacterium smegmatis MC2 155
[14] = target: T1, Multidrug efflux pump LfrA (Mycobacterium smegmatis (strain ATCC 700084 / mc(2)155)); assay: Inhibition of LfrA in Mycobacterium smegmatis MC2 155 ATCC 700084 assessed as potentiation of EtBr-induced bactericidal activity at 100 ug/ml after 24 hrs; conditions: Mycolicibacterium smegmatis MC2 155
[15] = target: T1, Multidrug efflux pump LfrA (Mycobacterium smegmatis (strain ATCC 700084 / mc(2)155)); assay: Inhibition of LfrA in Mycobacterium smegmatis MC2 155 ATCC 700084 assessed as decrease in norfloxacin MIC at 12.5 ug/ml after 72 hrs by MTT assay relative to control; conditions: Mycolicibacterium smegmatis MC2 155
[16] = target: T1, Multidrug efflux pump LfrA (Mycobacterium smegmatis (strain ATCC 700084 / mc(2)155)); assay: Inhibition of LfrA in Mycobacterium smegmatis MC2 155 ATCC 700084 assessed as potentiation of norfloxacin-induced bactericidal activity at 100 ug/ml after 48 hrs; conditions: Mycolicibacterium smegmatis MC2 155
[17] = target: T1, Multidrug efflux pump LfrA (Mycobacterium smegmatis (strain ATCC 700084 / mc(2)155)); assay: Inhibition of LfrA in Mycobacterium smegmatis MC2 155 ATCC 700084 assessed as potentiation of norfloxacin-induced bactericidal activity at 12.5 ug/ml after 48 hrs; conditions: Mycolicibacterium smegmatis MC2 155
[18] = target: T1, Multidrug efflux pump LfrA (Mycobacterium smegmatis (strain ATCC 700084 / mc(2)155)); assay: Inhibition of LfrA in Mycobacterium smegmatis MC2 155 ATCC 700084 assessed as decrease in EtBr MIC at 16 ug/ml after 72 hrs by MTT assay relative to control; conditions: Mycolicibacterium smegmatis MC2 155
[19] = target: T1, Multidrug efflux pump LfrA (Mycobacterium smegmatis (strain ATCC 700084 / mc(2)155)); assay: Inhibition of LfrA in Mycobacterium smegmatis MC2 155 ATCC 700084 assessed as increase in norfloxacin accumulation at 12.5 ug/ml measured every 5 mins for 35 mins by fluorometric analysis; conditions: Mycolicibacterium smegmatis MC2 155
[20] = target: T1, Multidrug efflux pump LfrA (Mycobacterium smegmatis (strain ATCC 700084 / mc(2)155)); assay: Inhibition of LfrA in Mycobacterium smegmatis MC2 155 ATCC 700084 assessed as increase in EtBr accumulation at 12.5 ug/ml measured every 5 mins for 35 mins by fluorometric analysis; conditions: Mycolicibacterium smegmatis MC2 155
[21] = target: T1, Multidrug efflux pump LfrA (Mycobacterium smegmatis (strain ATCC 700084 / mc(2)155)); assay: Inhibition of LfrA in Mycobacterium smegmatis MC2 155 ATCC 700084 assessed as decrease in norfloxacin MIC at 0.0004 ug/ml after 72 hrs by MTT assay relative to control; conditions: Mycolicibacterium smegmatis MC2 155
[22] = target: T1, Multidrug efflux pump LfrA (Mycobacterium smegmatis (strain ATCC 700084 / mc(2)155)); assay: Inhibition of LfrA in Mycobacterium smegmatis MC2 155 ATCC 700084 assessed as decrease in norfloxacin MIC at 100 ug/ml after 72 hrs by MTT assay relative to control; conditions: Mycolicibacterium smegmatis MC2 155
[23] = target: T1, Multidrug efflux pump LfrA (Mycobacterium smegmatis (strain ATCC 700084 / mc(2)155)); assay: Inhibition of LfrA in Mycobacterium smegmatis MC2 155 ATCC 700084 assessed as decrease in EtBr MIC at 3.125 ug/ml after 72 hrs by MTT assay relative to control; conditions: Mycolicibacterium smegmatis MC2 155
[24] = target: T1, Multidrug efflux pump LfrA (Mycobacterium smegmatis (strain ATCC 700084 / mc(2)155)); assay: Inhibition of LfrA in Mycobacterium smegmatis MC2 155 ATCC 700084 assessed as potentiation of norfloxacin-induced bactericidal activity at 25 ug/ml after 24 to 48 hrs; conditions: Mycolicibacterium smegmatis MC2 155

Structure (SMILES)	fold change (FC) [1]	fractional inhibitory concentration index (FICI) [1]	Activity (CC-1)	viability at 24 h, 50 ug/ml [3]	viability at 24 h, 100 ug/ml [4]	Activity [5]	MIC [7]	inhibition [8]	fold change (FC) [9]	fractional inhibitory concentration index (FICI) [9]	inhibition [14]	further results
O=c1c2cccc(Cl)c2nc2c(Cl)cccn12	16	0.56	> 50%	95%	92%	> 355 FU	200 µg/mL (≈ 754 µM)	Active	–	–	–	Activity (deltalog10CFU/ml) [2]: 7; fold change (FC) [6]: 4; fractional inhibitory concentration index (FICI) [6]: 0.55
Cc1ccn2c(=O)c3cc(Br)ccc3nc2c1	–	–	–	–	–	–	200 µg/mL (≈ 692 µM)	–	4	0.37	–	fold change (FC) [10]: 2; fractional inhibitory concentration index (FICI) [10]: 0.3
Cc1cccn2c(=O)c3cccc(Cl)c3nc12	8	0.62	> 50%	40%	42%	400 FU	200 µg/mL (≈ 817 µM)	Active	4	0.37	–	Activity (deltalog10CFU/ml) [11]: 7; Activity (deltalog10CFU/ml) [12]: > 3; inhibition [13]: Active
O=c1c2cccc(Cl)c2nc2ccc(F)cn12	8	0.62	> 50%	84%	86%	> 500 FU	200 µg/mL (≈ 804 µM)	Active	–	–	Active	fold change (FC) [6]: 4; fractional inhibitory concentration index (FICI) [6]: 0.55
COc1ccc(CCN(C)CCCC(C#N)(c2ccc(OC)c(OC)c2)C(C)C)cc1OC (stereo not drawn) [VERAPAMIL]	–	–	–	–	–	–	300 µg/mL (≈ 660 µM)	–	–	–	–	–
O=c1c2ccccc2nc2c(F)cc(F)cn12	16	0.5	> 50%	80%	52%	> 255 FU	200 µg/mL (≈ 861 µM)	Active	–	–	Active	fold change (FC) [15]: 4; fractional inhibitory concentration index (FICI) [15]: 0.3
O=c1c2cccc(F)c2nc2ccccn12	–	–	> 50%	96%	93%	–	200 µg/mL (≈ 934 µM)	–	–	–	–	fold change (FC) [15]: 16; fractional inhibitory concentration index (FICI) [15]: 0.12; Activity (deltalog10CFU/ml) [16]: 4; fold change (FC) [10]: 2; fractional inhibitory concentration index (FICI) [10]: 0.3; Activity [13]: 3000 FU; Activity (deltalog10CFU/ml) [17]: 4
O=c1c2cccc(Cl)c2nc2c3ccccc3ccn12	2	1	–	–	–	–	200 µg/mL (≈ 712 µM)	–	4	0.37	–	–
N#CC(C#N)=NNc1cccc(Cl)c1 [CARBONYL CYANIDE M-CHLOROPHENYLHYDRAZONE]	–	–	–	–	–	–	25 µg/mL (≈ 122 µM)	–	–	–	–	fold change (FC) [18]: 2; fractional inhibitory concentration index (FICI) [18]: 0.5; Activity [19]: 1000 FU; inhibition [20]: Active; fold change (FC) [21]: 32; fractional inhibitory concentration index (FICI) [21]: 0.03
Cc1ccn2c(=O)c3cccc(F)c3nc2c1	8	0.62	> 50%	96%	43%	> 150 FU	200 µg/mL (≈ 876 µM)	Active	–	–	Active	fold change (FC) [15]: 4; fractional inhibitory concentration index (FICI) [15]: 0.3
Cc1cccn2c(=O)c3cc(Br)ccc3nc12	–	–	–	–	–	–	200 µg/mL (≈ 692 µM)	–	4	0.37	–	fold change (FC) [10]: 2; fractional inhibitory concentration index (FICI) [10]: 0.3
O=c1c2ccc(F)cc2nc2ccccn12	–	–	–	–	–	–	200 µg/mL (≈ 934 µM)	–	–	–	–	fold change (FC) [15]: 2; fractional inhibitory concentration index (FICI) [15]: 0.56
O=c1c2ccc(Cl)cc2nc2ccccn12	8	0.62	> 50%	80%	70%	248 FU	200 µg/mL (≈ 867 µM)	Active	–	–	Active	Activity (deltalog10CFU/ml) [16]: 4; fold change (FC) [22]: 8; fractional inhibitory concentration index (FICI) [22]: 0.62; Activity [13]: 18000 FU
Cc1cccn2c(=O)c3ccc(Br)cc3nc12	–	–	–	–	–	–	200 µg/mL (≈ 692 µM)	–	4	0.37	–	–
Cc1cccn2c(=O)c3ccccc3nc12	8	0.62	> 50%	45%	81%	250 FU	200 µg/mL (≈ 951 µM)	Active	–	–	Active	fold change (FC) [15]: 4; fractional inhibitory concentration index (FICI) [15]: 0.3
Cc1ccn2c(=O)c3cccc(Cl)c3nc2c1	–	–	–	–	–	–	200 µg/mL (≈ 817 µM)	–	4	0.37	–	fold change (FC) [23]: 2; fractional inhibitory concentration index (FICI) [23]: 0.5
O=c1c2ccccc2nc2ccccn12	8	0.62	> 50%	86%	70%	< 150 FU	200 µg/mL (≈ 1020 µM)	inactive	8	0.25	Active	inhibition [2]: Active; Activity (deltalog10CFU/ml) [24]: > 3; Activity [13]: 2000 FU
O=c1c2cccc(Cl)c2nc2ccccn12	–	–	> 50%	100%	99%	–	200 µg/mL (≈ 867 µM)	–	8	0.25	–	Activity (deltalog10CFU/ml) [24]: > 3; Activity [13]: 3000 FU

— ChEMBL document CHEMBL4152357, “Efflux pump inhibition by 11H-pyrido[2,1-b]quinazolin-11-one analogues in mycobacteria” (Bioorg Med Chem, 2018)
